In US20210230131A1, “POLYAMINO BIARYL COMPOUNDS AND THEIR USE” (INSERM (INSTITUT NATIONAL DE LA SANTÉ ET DE LA RECHERCHE …, priority 2018, published 2021):

How the values were obtained:
Aβ1-40 peptide secretion = assay: Quantification of secreted Aβ1-40 by ELISA in SY5Y-APP695WT cells; assay type: cell-based; details: Homo sapiens; concentration inhibiting 50% of Aβ1-40 peptide secretion in SY5Y cells; 24 h treatment; mean ± SD of at least two experiments in triplicate
Method: (§1) Cell culture and treatment. The human neuroblastoma cell line […] was maintained in Dulbecco's modified Eagle medium (DMEM, high glucose, pyruvate-GIBCO by Life Technologies) supplemented with 10% foetal bovine serum, 2 mM L-glutamine, 1 mM non-essential amino acids and penicillin/streptomycin (GIBCO by Life Technologies) at 37° C. in a 5% CO2 humidified incubator. […] cells were maintained in 75 cm^2 culture flasks (Falcon) with supplemented DMEM medium until they reached 80% of confluence 24 h before treatment. For compounds treatment, a 10 mM stock solution was diluted in freshly supplemented DMEM medium to obtain the precise final concentration of drug. Bafilomycin A1 (BafA1), the vacuolar […] type H+ ATPase inhibitor, was purchased from Merck Millipore and was used at a final dilution of 100 nM. For drug treatment, cells were plated at a rate of 5·10^5 cells per well into 12-well plates (Falcon) and cultured with 1 mL supplemented DMEM cell medium for 24 h before drug exposure. The following day, cell medium was replaced with fresh medium containing drugs diluted at the indicated concentrations. Cells were treated for 24 h. At the end of treatments, the cell medium was collected and kept at -80° C. until use for dosage. Then, cells were rinsed once with PBS and extracted in 100 μL of Laemmli buffer (10 mM Tris, 20% glycerol and 2% Sodium dodecyl sulfate) using a cell-scraper. The cell lysate was further sonicated (30 pulses of 0.5 s, 60 Hz) for 5 min. Total protein concentration was determined using the Pierce BCA Protein Assay Kit (Thermo scientific) according to the manufacturer's instructions. Samples were stored at -80° C. until analysis. Quantification of secreted Aβ1-40/1-42 and sAPPα/sAPPβ. Conditioned media of […] collected at the end of treatments were centrifuged at 1000 g for 5 min to eliminate cells debris. Aβ1-40 and Aβ1-42 peptide concentrations in […] were determined using amyloid-beta 40 and 42 Human ELISA kits (Invitrogen) according to the manufacturer's instructions after 1:10 and 1:2 dilutions of supernatants in ELISA buffer, respectively. sAPPα and sAPPβ concentrations in ng/mL were determined using the sAPPα/sAPPβ kit (Meso Scale Diagnostics, MSD®) according to the manufacturer's instructions. Compounds of the invention (compounds 24-37, 41, 44 and 51-58) were evaluated for their ability to modulate APP processing on SY5Y human neuroblastoma cell line stably expressing the neuronal isoform of human wild-type APP695 (SYSY-APPwt). Aβ levels (Aβ1-40 and Aβ1-42) after treatment with reference and tested compounds were measured by ELISA (Table 2). […] APP carboxy-terminal fragments (αCTFs and AICD) were measured by Western blot and quantified. The effect of reference and tested compounds on αCTFs and AICD are expressed as the intensity of corresponding western-blot bands resulting from the secretase cleavages.

Aβ1-42 peptide secretion = assay: Quantification of secreted Aβ1-42 by ELISA in SY5Y-APP695WT cells; assay type: cell-based; details: Homo sapiens; concentration inhibiting 50% of Aβ1-42 peptide secretion in SY5Y cells; 24 h treatment; mean ± SD of at least two experiments in triplicate
Method: as §1

CTFα = assay: APP carboxy-terminal fragment αCTF by Western blot in SY5Y-APP695WT cells; assay type: cell-based, human; details: CTFα increase compared to chloroquine ([CTF]compound/[CTF]CQ) at 3 μM; mean of at least three experiments
From the text: (§2) Antibodies. Primary antibodies used in this study for western-blot analysis included a homemade rabbit antiserum against the last 17 amino acids of human APP protein sequence, named APP-Cter-C17 (1/5000 in TBS-M). Anti-β-actin (1/10 000 in TBS-M) was obtained from Sigma. Anti-LC3B (1/2000 in TBS-BSA) and anti-p62/SQSTM1 (1/2000 in TBS-M) antibodies were purchased from Cell Signaling Technology. Secondary antibodies (peroxidase-labeled goat anti-rabbit IgG, 1/5000 or peroxidase-labeled horse anti-mouse IgG, 1/50000 in TBS-T) were obtained from Vector Laboratories.
(§3) Cell culture and treatment. The human neuroblastoma cell line SY5Y-APP^695WT was maintained in Dulbecco's modified Eagle medium (DMEM, high glucose, pyruvate—GIBCO by Life Technologies) supplemented with 10% foetal bovine serum, 2 mM L-glutamine, 1 mM non-essential amino acids and penicillin/streptomycin (GIBCO by Life Technologies) at 37° C. in a 5% CO2 humidified incubator. SY5Y-APP^695WT cells were maintained in 75 cm^2 culture flasks (Falcon) with supplemented DMEM medium until they reached 80% of confluence 24 h before treatment.
(§4) For drug treatment, cells were plated at a rate of 5·10^5 cells per well into 12-well plates (Falcon) and cultured with 1 mL supplemented DMEM cell medium for 24 h before drug exposure. The following day, cell medium was replaced with fresh medium containing drugs diluted at the indicated concentrations. Cells were treated for 24 h. At the end of treatments, the cell medium was collected and kept at −80° C. until use for dosage. Then, cells were rinsed once with PBS and extracted in 100 μL of Laemmli buffer (10 mM Tris, 20% glycerol and 2% Sodium dodecyl sulfate) using a cell-scraper. The cell lysate was further sonicated (30 pulses of 0.5 s, 60 Hz) for 5 min. Total protein concentration was determined using the Pierce BCA Protein Assay Kit (Thermo scientific) according to the manufacturer's instructions. Samples were stored at −80° C. until analysis.
(§5) Western Blot Analysis. Cell protein lysates were prepared for western-blot analysis by diluting the sample with 1 volume of NuPAGE® lithium dodecyl sulfate (LDS) 2× sample buffer supplemented with 20% NuPAGE® sample reducing agents (Invitrogen). Samples were heat 10 min at 100° C. 10 μg of total proteins per well were loaded onto a precast 4-12% Criterion XT Bis-Tris polyacrylamide gel (Bio-Rad) and electrophoresis was achieved after applying a tension of 150 V during 90 min using a Criterion electrophoresis Cell with the NuPAGE® MOPS SDS running buffer (1×). Proteins were transferred to a nitrocellulose membrane of […] pore size (G&E Healthcare) using the Criterion blotting system and applying a tension of 100 V for 45 min. To resolve proteins of low molecular weights such as carboxy-terminal fragments of APP, 12% Criterion XT Bis-Tris polyacrylamide gels (Bio-Rad) were used and electrophoresis was performed during 70 min at 150 V in a NuPAGE® MES SDS running buffer (1×). Proteins were transferred to a nitrocellulose membrane of 0.2 μm pore size (G&E Healthcare) at 100 V for 40 min. Molecular weights calibration was achieved using molecular weight markers (Novex and Magic Marks, Life Technologies). Protein transfer and quality were determined by a reversible Ponceau Red coloration (0.2% Xylidine Ponceau Red and 3% Trichloroacetic acid). Membranes were then blocked in 25 mM Tris-HCl pH 8.0, 150 mM NaCl, 0.1% Tween-20 (v/v) (TBS-T) and 5% (w/v) of skimmed milk (TBS-M) or 5% (w/v) of bovine serum albumin (TBS-BSA) depending on the antibody during 1 h. Membrane was rinsed three-times 10 min in TBS-T before incubation with the primary antibody overnight at 4° C. Membrane was rinsed 3 times 10 min with TBS-T and then incubated with the secondary antibody for 45 min at room temperature (RT). […] Quantifications of protein expression levels were performed with ImageJ Software (NIH). […]

AICD = AICD by Western blot in SY5Y-APP695WT cells; assay type: cell-based, human; details: AICD increase compared to chloroquine ([AICD]compound/[AICD]CQ) at 3 μM; mean of at least three experiments
From the text: as §2, §3, §4, §5

Compound | IC50 (Aβ1-40 peptide secretion) [µM] | IC50 (Aβ1-42 peptide secretion) [µM] | CTFα vs CQ (3 μM) (CTFα) | AICD vs CQ (3 μM) (AICD)
CN(C)Cc1ccccc1-c1ccc(NCCN2CCCCC2)c(OCCCCN2CCCCC2)c1 [Compound 35, 2′-((Dimethylamino)methyl)-3-(4-(piperidin-1-yl)butoxy)-N-(2-(piperidin-1-yl)ethyl)-[1,1′-biphenyl]-4-amine] | 1.6 ± 0.1 | 1.6 ± 0.3 | 4.4 | 4.8
CN(C)Cc1ccccc1-c1ccc(NCCCCN2CCCCC2)c(OCCN2CCCCC2)c1 [Compound 36, 2′-((Dimethylamino)methyl)-N-(4-(piperidin-1-yl)butyl)-3-(2-(piperidin-1-yl)ethoxy)-[1,1′-biphenyl]-4-amine] | 1.7 ± 0.3 | 1.6 ± 0.8 | 4.2 | 3.0
c1ccc(-c2ccc(NCCCN3CCCCC3)c(OCCN3CCCCC3)c2)cc1 [Compound 37, 3-(2-(Piperidin-1-yl)ethoxy)-N-(3-(piperidin-1-yl)propyl)-[1,1′-biphenyl]-4-amine] | 5.2 ± 0.1 | 4 ± 0.4 | 2.4 | 2.1
CN(C)Cc1ccccc1-c1cccc(OCCN2CCCCC2)c1 [Compound 41, N,N-Dimethyl-1-(3′-(2-(piperidin-1-yl)ethoxy)-[1,1′-biphenyl]-2-yl)methanamine] | 1.5 ± 0.3 | 1.2 ± 0.3 | 0.6 | 0.7
CN(C)Cc1ccccc1-c1ccc(NCCCN2CCCCC2)cc1 [Compound 44, 2′-((Dimethylamino)methyl)-N-(3-(piperidin-1-yl)propyl)-[1,1′-biphenyl]-4-amine] | 3.9 ± 1 | 3.6 ± 0.1 | 0.9 | 0.8
CN(C)Cc1ccn(-c2ccc(NCCCN3CCCCC3)c(OCCN3CCCCC3)c2)c1 [Compound 51, 4-(3-[(Dimethylamino)methyl]-1H-pyrrol-1-yl)-2-[2-(piperidin-1-yl)ethoxy]-N-[3-(piperidin-1-yl)propyl]aniline] | 5 ± 0.9 | 6.5 ± 2 | 3.6 | 2.0
c1cn(-c2ccc(NCCCN3CCCCC3)c(OCCN3CCCCC3)c2)cc1CN1CCCCC1 [Compound 52, 2-[2-(Piperidin-1-yl)ethoxy]-N-[3-(piperidin-1-yl)propyl]-4-[3-(piperidin-1-ylmethyl)-1H-pyrrol-1-yl]aniline] | 3.7 ± 1.3 | 5 ± 0.3 | 3.3 | 1.2
c1cn(-c2ccc(NCCCN3CCCCC3)c(OCCN3CCCCC3)c2)cc1CN1CCOCC1 [Compound 53, 4-[3-(Morpholin-4-ylmethyl)-1H-pyrrol-1-yl]-2-[2-(piperidin-1-yl)ethoxy]-N-[3-(piperidin-1-yl)propyl]aniline] | 3.3 ± 0.2 | 3.5 ± 1.1 | 1.7 | 3.3
CN(C)CCCNc1ccc(-n2ccc(CN(C)C)c2)cc1OCCN1CCCCC1 [Compound 55, 4-(3-[(dimethylamino)methyl]-1H-pyrrol-1-yl)-N-[3-(dimethylamino)propyl]-2-[2-(piperidin-1-yl)ethoxy]aniline] | 6.1 ± 0.7 | 8 ± 1.6 | 1.2 | 0.8
CN(C)CCCNc1ccc(-n2ccc(CN3CCCCC3)c2)cc1OCCN1CCCCC1 [Compound 56, N-[3-(Dimethylamino)propyl]-2-[2-(piperidin-1-yl)ethoxy]-4-[3-(piperidin-1-ylmethyl)-1H-pyrrol-1-yl]aniline] | 5.3 ± 0.1 | 6.3 ± 0.7 | 2.5 | 2.7
CN(C)CCCNc1ccc(-n2ccc(CN3CCOCC3)c2)cc1OCCN1CCCCC1 [Compound 57, N-[3-(Dimethylamino)propyl]-4-[3-(morpholine-4-ylmethyl)-1H-pyrrol-1-yl]-2-[2-(piperidin-1-yl)ethoxy]aniline] | 2.8 ± 1.1 | 3.4 ± 2 | 2.2 | 2.6
CN(C)CCCNc1ccc(-n2ccc(CN3CCN(C)CC3)c2)cc1OCCN1CCCCC1 [Compound 58, N-[3-(dimethylamino)propyl]-4-(3-[(4-methylpiperazin-1-yl)methyl]-1H-pyrrol-1-yl}-2-[2-(piperidin-1-yl)ethoxy]aniline] | 5.1 ± 1.3 | 5.4 ± 0.4 | 3.0 | 1.8
